Read-outs that look alike come from different tables or passages of the source.
Legend:
[1] = system: Trichoderma reesei cellulase composition; test: Hydrolysis of AVICEL® (microcrystalline cellulose) by the T. reesei cellulase composition; details: for quinone compound effect(no GH61) (ratio, Equation 2): AVICEL®; for Percent conversion of AVICEL®: no quinone compound, cellulase 4 mg protein/g cellulose, GH61 polypeptide where present 0.4 mg/g cellulose (10% w/w of cellulase)
[2] = system: Trichoderma reesei cellulase composition; details: milled washed PCS; 5 mM quinone; 1, 3, and 7 days (white bars)
[3] = system: A. oryzae CEL3A beta-glucosidase; format: biochemical; details: 96 hours at 50° C.
[4] = molecular target: A. oryzae CEL3A beta-glucosidase (Aspergillus oryzae, UniProt Q2UUD6); format: biochemical; details: 96 hours at 50° C.
[5] = 5 mM quinone, 1, 3, and 7 days (white bars)
[6] = component added alone, beta-glucosidase or GH61A 10 mg protein per g cellulose, adrenochrome […] w/w, 4-tert-butyl-5-methoxy-1,2-benzoquinone 0.15% w/w
[7] = quinone with T. aurantiacus GH61A polypeptide (10 mg/g cellulose), no beta-glucosidase
[8] = quinone added to A. oryzae CEL3A beta-glucosidase (10 mg/g cellulose), no GH61A
[9] = quinone with T. aurantiacus GH61A polypeptide (10 mg/g cellulose) and A. oryzae CEL3A beta-glucosidase (10 mg/g cellulose)

## O=C1c2ccccc2C(=O)c2c(O)ccc(O)c21
[1]; 1 mM quinone, 3 days of hydrolysis
  quinone compound effect(no GH61) (ratio, Equation 2): 0.932±0.0123
[1]; 1 mM quinone, 7 days of hydrolysis
  quinone compound effect(no GH61) (ratio, Equation 2): 1.01±0.0120

## O=C1C=C(O)C(=O)c2ccccc21
[1]; 1 mM quinone, FIG. 1E white bars
  quinone compound effect(no GH61) (ratio, Equation 2): less than 1

## O=C1C=CC(=O)C=C1 [1,4-benzoquinone]
[1]; [5]
  quinone compound effect(no GH61) (ratio, Equation 2): less than 1

## O=C1C=CC(=O)c2ccccc21 [1,4-naphthoquinone]
[1]; [5]
  quinone compound effect(no GH61) (ratio, Equation 2): less than 1
[2]
  quinone compound effect(no GH61) (ratio, Equation 2): less than 1

## COC1=CC(=O)C(=O)C=C1C(C)(C)C [4-tert-butyl-5-methoxy-1,2-benzoquinone]
[3]; [6]
  conversion of PASC: no significant conversion
[3]; [7]
  conversion of PASC: 0.8±0.6%
[4]; [8]
  conversion of PASC: 1.6±0.1%
[4]; [9]
  conversion of PASC: 29.9±3.2%

## CN1CC(O)C2=CC(=O)C(=O)C=C21 (stereo not drawn) [adrenochrome, 3-hydroxy-1-methyl-5,6-indolinedione]
[3]; [6]
  conversion of PASC: no significant conversion
[3]; [7]
  conversion of PASC: 0.1±0.1%
[4]; [8]
  conversion of PASC: 0.3±0.3%
[4]; [9]
  conversion of PASC: 8.5±2.0%

B1: A. oryzae CEL3A beta-glucosidase: beta-glucosidase (SEQ ID NO: 112) recombinantly prepared as described in WO 2004/099228 (protein, listed as Aspergillus oryzae)
chain: MKLGWIEVAALAAASVVSAKDDLAYSPPFYPSPWADGQGEWAEVYKRAVDIVSQMTLTEKVNLTTGTGWQLERCVGQTGSVPRLNIPSLCLQDSPLGIRFSDYNSAFPAGVNVAATWDKTLAYLRGQAMGEEFSDKGIDVQLGPAAGPLGAHPDGGRNWEGFSPDPALTGVLFAETIKGIQDAGVIATAKHYIMNEQEHFRQQPEAAGYGFNVSDSLSSNVDDKTMHELYLWPFADAVRAGVGAVMCSYNQINNSYGCENSETLNKLLKAELGFQGFVMSDWTAHHSGVGAALAGLDMSMPGDVTFDSGTSFWGANLTVGVLNGTIPQWRVDDMAVRIMAAYYKVGRDTKYTPPNFSSWTRDEYGFAHNHVSEGAYERVNEFVDVQRDHADLIRRIGAQSTVLLKNKGALPLSRKEKLVALLGEDAGSNSWGANGCDDRGCDNGTLAMAWGSGTANFPYLVTPEQAIQNEVLQGRGNVFAVTDSWALDKIAAAARQASVSLVFVNSDSGEGYLSVDGNEGDRNNITLWKNGDNVVKTAANNCNNTVVIIHSVGPVLIDEWYDHPNVTGILWAGLPGQESGNSIADVLYGRVNPGAKSPFTWGKTRESYGSPLVKDANNGNGAPQSDFTQGVFIDYRHFDKFNETPIYEFGYGLSYTTFELSDLHVQPLNASRYTPTSGMTEAAKNFGEIGDASEYVYPEGLERIHEFIYPWINSTDLKASSDDSNYGWEDSKYIPEGATDGSAQPRLPASGGAGGNPGLYEDLFRVSVKVKNTGNVAGDEVPQLYVSLGGPNEPKVVLRKFERIHLAPSQEAVWTTTLTRRDLANWDVSAQDWTVTPYPKTIYVGNSSRKLPLQASLPKAQ
[3]; [6]
  conversion of PASC: 1.5±0.3%

B2: T. terrestris GH61E polypeptide: GH61E polypeptide having cellulolytic enhancing activity (SEQ ID NO: 8), recombinantly prepared according to WO 2005/074647 A2 (protein, listed as Thielavia terrestris)
chain: MLANGAIVFLAAALGVSGHYTWPRVNDGADWQQVRKADNWQDNGYVGDVTSPQIRCFQATPSPAPSVLNTTAGSTVTYWANPDVYHPGPVQFYMARVPDGEDINSWNGDGAVWFKVYEDHPTFGAQLTWPSTGKSSFAVPIPPCIKSGYYLLRAEQIGLHVAQSVGGAQFYISCAQLSVTGGGSTEPPNKVAFPGAYSATDPGILINIYYPVPTSYQNPGPAVFSC
[1]; 1 day
  Percent conversion of AVICEL®: 14.7±0.3%
[1]; 3 days
  Percent conversion of AVICEL®: 29.2±0.4%
[1]; 7 days
  Percent conversion of AVICEL®: 49.3±0.5%

B3: T. stipitatus GH61 polypeptide: GH61 polypeptide having cellulolytic enhancing activity (SEQ ID NO: 164), recombinantly prepared as described in Example 3 (protein, listed as Talaromyces stipitatus)
chain: MPSTKVAALSAVLALASTVAGHGFVQNIVIDGKSYTGYLVNQYPYQSNPPAVIGWSTTATDLGFVDGSGYTNPDIICHKNAKPGQLSAPVAAGGKVELEWTTWPESHHGPVISYLANCNGDCTTVDKTKLEFVKIDQRGLIDDSNPPGTWAADQLIAANNSWTVTIPESIAPGNYVLRHEIIALHSANNATGAQNYPQCINLQITGSGTANPSGTPGEKLYTPTDPGILVNIYQSLSSYVIPGPTLWSGAAAHVVATAAGSATGVASATATPTTLVTAVSSPTGAPSVVTPEAPSVTSFAPVVTVTDVVTVTTVITTTIS
[1]; 1 day
  Percent conversion of AVICEL®: 13.6±0.4%
[1]; 3 days
  Percent conversion of AVICEL®: 27.9±0.2%
[1]; 7 days
  Percent conversion of AVICEL®: 44.7±0.5%

B4: T. reesei GH61B polypeptide: GH61B polypeptide having cellulolytic enhancing activity (SEQ ID NO: 16), recombinantly prepared according to WO 2007/089290 A2 (protein, listed as Trichoderma reesei)
chain: MKSCAILAALGCLAGSVLGHGQVQNFTINGQYNQGFILDYYYQKQNTGHFPNVAGWYAEDLDLGFISPDQYTTPDIVCHKNAAPGAISATAAAGSNIVFQWGPGVWPHPYGPIVTYVVECSGSCTTVNKNNLRWVKIQEAGINYNTQVWAQQDLINQGNKWTVKIPSSLRPGNYVFRHELLAAHGASSANGMQNYPQCVNIAVTGSGTKALPAGTPATQLYKPTDPGILFNPYTTITSYTIPGPALWQG
[1]; 1 day
  Percent conversion of AVICEL®: 13.6±0.4%
[1]; 3 days
  Percent conversion of AVICEL®: 29±2%
[1]; 7 days
  Percent conversion of AVICEL®: 44±2%

B5: P. pinophilum GH61A polypeptide: GH61A polypeptide having cellulolytic enhancing activity (SEQ ID NO: 32), recombinantly prepared according to WO 2011/005867 (protein, listed as Penicillium pinophilum)
chain: MPSTKVAALSAVLALASTVAGHGFVQNIVIDGKSYSGYLVNQFPYESNPPAVIGWATTATDLGFVAPSEYTNADIICHKNATPGALSAPVAAGGTVELQWTTWPDSHHGPVISYLANCNGNCSTVDKTKLDFVKIDQGGLIDDTTPPGTWASDKLIAANNSWTVTIPSTIAPGNYVLRHEIIALHSAGNADGAQNYPQCINLEITGSGTAAPSGTAGEKLYTSTDPGILVNIYQSLSTYVIPGPTLWSGAANGAVATGSATAVATTATASATATPTTLVTSVAPASSTFATAVVTTVAPAVTDVVTVTDVVTVTTVITTTVL
[1]; 1 day
  Percent conversion of AVICEL®: 14.1±0.4%
[1]; 3 days
  Percent conversion of AVICEL®: 28.5±0.5%
[1]; 7 days
  Percent conversion of AVICEL®: 46±2%

Source: patent US9752168B2, “Compositions comprising a polypeptide having cellulolytic enhancing activity and a quinone compound and uses thereof” (priority 2010, dated 2017)
